Tested on: mouse T lymphocytes stimulated with the combination of ionomycin plus PMA
Assay: T-cell proliferation assay (ionomycin plus PMA induced T-cell stimulation, tritiated thymidine uptake)
Format: cell-based
Details: for immunosuppressive activity, inhibition of T-cell activation: qualitative statement
Description: The principle of this assay is to measure the proliferation of mouse T lymphocytes stimulated with the combination of ionomycin plus PMA. A positive sample in this assay will inhibit T-cell proliferation, as indicated by reduced tritiated thymidine uptake.
Spleens from C57B1/6 mice were taken under sterile conditions and gently dissociated in ice-cold RPMI 1640 culture medium (GIBCO, Grand Island, N.Y.) supplemented with 10% heat-inactivated fetal calf serum (GIBCO). Cells were pelleted by centrifugation at 1500 rpm for 8 minutes. Contaminating red cells were removed by treating the pellet with ammonium chloride lysing buffer (GIBCO) for 2 minutes at 4°C. Cold medium was added and cells were again centrifuged at 1500 rpm for 8 minutes. T lymphocytes were then isolated by separation of the cell suspension on nylon wool columns as follows: Nylon wool columns were prepared by packing approximately 4 grams of washed and dried nylon wool into 20 ml plastic syringes. The columns were sterilized by autoclaving at 250°F for 30 minutes. Nylon wool columns were wetted with warm (37°C) culture medium and rinsed with the same medium. Washed spleen cells resuspended in warm medium were slowly applied to the nylon wool. The columns were then incubated in an upright position at 37°C for 1 hour. Non-adherent T lymphocytes were eluted from the columns with warm culture medium and the cell suspensions were spun as above.
Purified T lymphocytes were resuspended at 2.5 x 10⁵ cells/ml in complete culture medium composed of RPMI 1640 medium with 10% heat-inactivated fetal calf serum, 100 mM glutamine, 1 mM sodium pyruvate, 2 x 10⁻⁵ M 2-mercaptoethanol and 50 µg/ml gentamycin. Ionomycin was added at 250 ng/ml and PMA at 10 ng/ml. The cell suspension was immediately distributed into 96 well flat-bottom microculture plates (Costar) at 200 µl/well. […] L-679,934 was used as a standard. The culture plates were then incubated at 37°C in a humidified atmosphere of 5% CO₂-95% air for 44 hours. The proliferation of T lymphocytes was assessed by measurement of tritiated thymidine incorporation. After 44 hours of culturing, the cells were pulse-labelled with 2 µCi/well of tritiated thymidine (NEN, Cambridge, MA). After another 4 hours of incubation, cultures were harvested on glass fiber filters using a multiple sample harvester. Radioactivity of filter discs corresponding to individual wells was measured by standard liquid scintillation counting methods (Betacounter). Mean counts per minute of replicate wells were calculated and the results expressed as percent inhibition of tritiated thymidine uptake (proliferation) as follows: [formula]
Purified T lymphocytes were resuspended at 2.5 x 10⁵ cells/ml in complete culture medium composed of RPMI 1640 medium with 10% heat-inactivated fetal calf serum, 100 mM glutamine, 1 mM sodium pyruvate, 2 x 10⁻⁵ M 2-mercaptoethanol and 50 µg/ml gentamycin. Ionomycin was added at 250 ng/ml and PMA at 10 ng/ml. The cell suspension was immediately distributed into 96 well flat-bottom microculture plates (Costar) at 200 µl/well. […] L-679,934 was used as a standard. The culture plates were then incubated at 37°C in a humidified atmosphere of 5% CO₂-95% air for 44 hours. The proliferation of T lymphocytes was assessed by measurement of tritiated thymidine incorporation. After 44 hours of culturing, the cells were pulse-labelled with 2 µCi/well of tritiated thymidine (NEN, Cambridge, MA). After another 4 hours of incubation, cultures were harvested on glass fiber filters using a multiple sample harvester.

Structure (SMILES) | % Inhibition (0.6 ng/ml, ³H-thymidine pulse 4 hours, harvest at 48 hours) [%] | % Inhibition (0.9 ng/ml, ³H-thymidine pulse 4 hours, harvest at 48 hours) [%] | % Inhibition (1.3 ng/ml, ³H-thymidine pulse 4 hours, harvest at 48 hours) [%] | % Inhibition (1.9 ng/ml, ³H-thymidine pulse 4 hours, harvest at 48 hours) [%] | % Inhibition (2.9 ng/ml, ³H-thymidine pulse 4 hours, harvest at 48 hours) [%] | % Inhibition (4.4 ng/ml, ³H-thymidine pulse 4 hours, harvest at 48 hours) [%] | % Inhibition (6.6 ng/ml, ³H-thymidine pulse 4 hours, harvest at 48 hours) [%] | % Inhibition (10 ng/ml, ³H-thymidine pulse 4 hours, harvest at 48 hours) [%] | immunosuppressive activity, inhibition of T-cell activation | % Inhibition (0.29 ng/ml, ³H-thymidine pulse 4 hours, harvest at 48 hours) [%] | % Inhibition (0.44 ng/ml, ³H-thymidine pulse 4 hours, harvest at 48 hours) [%] | % Inhibition (0.66 ng/ml, ³H-thymidine pulse 4 hours, harvest at 48 hours) [%] | % Inhibition (0.99 ng/ml, ³H-thymidine pulse 4 hours, harvest at 48 hours) [%] | % Inhibition (1.5 ng/ml, ³H-thymidine pulse 4 hours, harvest at 48 hours) [%] | % Inhibition (2.2 ng/ml, ³H-thymidine pulse 4 hours, harvest at 48 hours) [%] | % Inhibition (3.3 ng/ml, ³H-thymidine pulse 4 hours, harvest at 48 hours) [%] | % Inhibition (5 ng/ml, ³H-thymidine pulse 4 hours, harvest at 48 hours) [%] | inhibition at 0.01 µg/mL (Mus musculus, T-lymphocyte, 10 ng/ml, ³H-thymidine pulse 4 hours, harvest at 48 hours) [%]
CC[C@@H]1/C=C(\C)C[C@H](C)C[C@H](OC)[C@H]2O[C@@](O)(C(=O)C(=O)N3CCCC[C@H]3C(=O)O[C@H](/C(C)=C/[C@@H]3CC[C@@H](O)[C@H](O)C3)[C@H](C)[C@@H](O)CC1=O)[C@H](C)C[C@@H]2OC [demethimmunomycin, 31-desmethoxy-31-hydroxy-L-683,590] | 0 | 9.0 | 38.2 | 72.1 | 86.3 | 91.9 | 97.9 | 98.6 | positive inhibition of T-cell activation | – | – | – | – | – | – | – | – | –
C=CC[C@@H]1/C=C(\C)C[C@H](C)C[C@H](OC)[C@H]2O[C@@](O)(C(=O)C(=O)N3CCCC[C@H]3C(=O)O[C@H](/C(C)=C/[C@@H]3CC[C@@H](O)[C@H](O)C3)[C@H](C)[C@@H](O)CC1=O)[C@H](C)C[C@@H]2OC [demethomycin, 31-desmethoxy-31-hydroxy-L-679,934] | – | – | – | – | – | – | – | – | positive inhibition of T-cell activation | 0 | 0 | 36.8 | 67.1 | 80.5 | 92.9 | 97.2 | 98.1 | –
C=CC[C@@H]1/C=C(\C)C[C@H](C)C[C@H](OC)[C@H]2O[C@@](O)(C(=O)C(=O)N3CCCC[C@H]3C(=O)O[C@H](/C(C)=C/[C@@H]3CC[C@@H](O)[C@H](OC)C3)[C@H](C)[C@@H](O)CC1=O)[C@H](C)C[C@@H]2OC [L-679,934, reference compound] | – | – | – | – | – | – | – | – | – | – | – | – | – | – | – | – | – | 99

— patent EP0353827A2, “New immunosuppressant-producing culture” (MERCK & CO. INC., priority 1988, dated 1990)
